Laboratory results: patent US6693123B2 (University of Pittsburgh, priority 1995, dated 2004)
Structures can show the parent of a compound that is named as a salt.

What follows are compounds tested against T1, Rat brain protein farnesyltransferase (Rattus norvegicus, UniProt Q02293+Q04631) (assay: In vitro inhibition of protein farnesyltransferase, Amersham scintillation proximity assay with biotin-K Ras B fragment). Settings: Inhibition of farnesyltransferase; compound at 0.01 μM (Table 6, values marked **); read-out: % inhibition at 0.01 μM.
T1 construct: The enzyme is purified according to Reiss, Y., et al., Cell, 62: 81-88 (1990), utilizing steps one through three; from tissue; host or cells: rat brain
Format: biochemical
Source text: The ability of the compounds of the invention to inhibit protein farnesyltransferase or protein geranylgeranyltransferase can be measured according to the method of Moores, et al., J. Biol. Chem. 266: 14603 (1991) or the method of Vogt, et al., J. Biol. Chem. 270:660-664 (1995). In addition, procedures for determination of the inhibition of farnesylation of the oncogene protein Ras are described by Goldstein, et al., J. Biol. Chem., 266:15575-15578 (1991) and by Singh in U.S. Pat. No. 5,245,061.
In addition, in vitro inhibition of protein farnesyltransferase may be measured by the following procedure. Rat brain protein farnesyltransferase activity is measured using an Amersham Life Science commercial scintillation proximity assay kit and substituting a biotin-K Ras B fragment (biotin-[…]Ue-Met-CO2H), 0.1 mM final concentration, for the biotin-lamin substrate provided by Amersham. The enzyme is purified according to Reiss, Y., et al., Cell, 62: 81-88 (1990), utilizing steps one through three. […]
The % inhibition of protein farnesyltransferase was determined for representative compounds of the invention.

Row | Compound | inhibition at 0.01 µM [%]
1 | CSCC[C@H](NC(=O)c1ccc(C=Cc2cnccc2OCc2cc(F)cc(F)c2)cc1-c1ccccc1C)C(=O)O [Example 1363, N-[4-(2-(4-(3,5-Difluorobenzyl)oxypyridin-3-yl)ethenyl)-2-(2-methylphenyl)benzoyl]methionine Sodium Salt] | 88
2 | CCCOc1ccncc1C=Cc1ccc(C(=O)N[C@@H](CCSC)C(=O)O)c(-c2ccccc2C)c1 [Example 1362, N-[4-(2-(4-Propyloxypyridin-3-yl)ethenyl)-2-(2-methylphenyl)benzoyl]methionine Sodium Salt] | 83

Same assay, conditions: Inhibition of farnesyltransferase; compound at 1 × 10^−5 M (Table 1)

Row | Compound | inhibition at 10 µM [%]
3 | CSCC[C@H](NC(=O)c1ccc(NCc2cnc(-c3ccccc3)[nH]2)cc1-c1ccccc1)C(=O)O [Example 382, 4-[N-(1-H-2-Phenylimidazole-4-yl)methylamino-2-phenylbenzoyl]-methionine] | > 50
4 | CC(C)C[C@H](NC(=O)c1ccc(NCc2c[nH]cn2)cc1-c1ccccc1)C(=O)O [Example 387, 4-[N-(1H-Imidazol-4-yl)methylamino-2-phenylbenzoyl]leucine] | > 50

Same assay, conditions: Inhibition of farnesyltransferase; compound at 1 × 10^−6 M (Table 2)

Row | Compound | % inhibition at 1 × 10^−6 M [%]
5 | COc1cccc(-c2cc(COc3cccnc3)ccc2C(=O)N[C@@H](CCSC)C(=O)O)c1 [Example 208] | 98
6 | [4-(3-Pyridyloxymethyl)-2-(2-chlorophenyl)benzoyl]methionine Methyl Ester [Example 305] | 99
7 | CSCC[C@H](NC(=O)c1ccc(C=Cc2cccnc2)cc1-c1ccccc1C)C(=O)OCOC(C)=O [Example 295] | 94
8 | CSCCC(NC(=O)c1ccc(C=Cc2cccnc2)cc1-c1ccccc1C)C(=O)NS(=O)(=O)c1ccc(C)cc1 (centres unmarked) [Example 277, {4-[2-(Pyrid-3-yl)ethenyl]-2-(2-methylphenyl)benzoyl}methionine 4-Tolylsulfonamide] | 98
9 | CSCC[C@H](NC(=O)c1ccc(COc2cccnc2)cc1-c1ccccc1)C(=O)OCc1oc(=O)oc1C [Example 326, [4-(3-Pyridyloxymethyl)-2-phenylbenzoyl]methionine O-Dimethylvinylene Carbonate Ester] | 91

Same assay, conditions: Inhibition of farnesyltransferase; compound at 1 × 10^−6 M (Table 2); read-out: % inhibition at 1 × 10^−6 M

Row | Compound | inhibition at 1 µM [%]
10 | COC(=O)[C@H](CCSC)NC(=O)c1ccc(NC(=O)c2cccnc2)cc1-c1ccccc1C [Example 300, [4-(3-Pyridylcarbonylamino)-2-(2-methylphenyl)benzoyl]methionine Methyl Ester] | 22
11 | CSCC[C@H](NC(=O)c1ccc(NCc2cccnc2)cc1-c1ccccc1C)C(=O)O [Example 309, [4-(3-Pyridylmethylamino)-2-(2-methylphenyl)benzoyl]methionine] | 98
12 | CSCC[C@H](NC(=O)c1ccc(CSCc2c[nH]cn2)cc1-c1ccccc1C)C(=O)O [Example 331, [4-(1H-Imidazol-4-ylmethylthiomethyl)-2-(2-methylphenyl)benzoyl]methionine] | 98
13 | CSCC[C@H](NC(=O)c1ccc(COc2cccnc2)cc1-c1cccc(C)c1)C(=O)O [Example 205, [4-(3-Pyridyloxymethyl)-2-(3-methylphenyl)benzoyl]methionine] | 98
14 | CSCC[C@H](NC(=O)c1ccc(C=Cc2cccnc2)cc1-c1ccccc1C)C(=O)O [Example 276, {4-[2-(Pyrid-3-yl)ethenyl]-2-(2-methylphenyl)benzoyl}methionine Sodium Salt] | 98
15 | COC(=O)[C@H](CCSC)NC(=O)c1ccc(NCc2cccnc2)cc1-c1ccccc1C [Example 308, [4-(3-Pyridylmethylamino)-2-(2-methylphenyl)benzoyl]methionine Methyl Ester] | 62
16 | Cc1ccccc1-c1cc(COc2cccnc2)ccc1C(=O)N[C@@H](CCS(C)(=O)=O)C(=O)O [Example 311, N-[4-(3-Pyridyloxymethyl)-2-(2-methylphenyl)benzoyl]-2-amino-4-(methylsulfonyl)butanoic Acid] | 97
17 | CSCC[C@H](NC(=O)c1ccc(C=Cc2cccnc2)cc1-c1ccccc1)C(=O)O [Example 211, {4-[2-(Pyrid-3-yl)ethenyl]-2-phenylbenzoyl}methionine Sodium Salt] | 98
18 | CSCC[C@H](NC(=O)c1ccc(CNc2ccncc2)cc1-c1ccccc1)C(=O)O [Example 161, [4-(4-Pyridylaminomethyl)-2-phenylbenzoyl]methionine] | 54
19 | CSCC[C@@H](C(=O)O)N(C)C(=O)c1ccc(CNc2cccnc2)cc1-c1ccccc1 [Example 159, [4-(3-Pyridylaminomethyl)-2-phenylbenzoyl]-N-methylmethionine] | 84
20 | NC(=O)CC[C@H](NC(=O)c1ccc(COc2cccnc2)cc1-c1ccccc1)C(=O)O [Example 316, (S)-2-N-[4-(3-Pyridyloxymethyl)-2-phenylbenzoyl]amino-4-(aminocarbonyl)butanoic Acid] | 63

Same assay, conditions: Inhibition of farnesyltransferase; compound at 1 × 10^−7 M (Table 3); read-out: % inhibition at 1 × 10^−7 M

Row | Compound | inhibition at 0.1 µM [%]
21 | CSCC[C@H](NC(=O)c1ccc(C#Cc2cccnc2)cc1-c1ccccc1C)C(=O)O [Example 865, N-[4-(2-Pyrid-3-ylethyn-1-yl)-2-(2-methylphenyl)benzoyl]methionine] | 95

Same assay, conditions: Inhibition of farnesyltransferase; compound at 1 × 10^−8 M (Table 4); read-out: % inhibition at 1 × 10^−8 M

Row | Compound | inhibition at 0.01 µM [%]
22 | CSCC[C@H](NC(=O)c1ccc(CN(CC2CCCCC2)c2cccnc2)cc1-c1ccccc1C)C(=O)O [Example 408] | > 95
23 | CSCC[C@H](NC(=O)c1ccc(CNCc2c[nH]cn2)cc1-c1ccccc1C)C(=O)O [Example 954, N-[4-(Imidazol-4-ylmethylaminomethyl)-2-(2-methylphenyl)benzoyl]methionine] | > 50

Same assay, conditions: read-out: % inhibition at 0.01 μM

Row | Compound | inhibition at 0.01 µM [%]
24 | CSCC[C@H](NC(=O)c1ccc(/C=C/c2cnccc2Cl)cc1-c1ccccc1C)C(=O)O [Example 1040, N-[4-(2-(4-Chloropyridin-3-yl)ethenyl)-2-(2-methylphenyl)benzoyl]methionine Lithium Salt] | 90
25 | CSCC[C@H](NC(=O)c1ccc(CN(Cc2cccnc2)Cc2cc(F)cc(F)c2)cc1-c1ccccc1C)C(=O)O [Example 1286, N-[4-N-(N-(3-Pyridylmethyl)-N-(3,5-difluorobenzyl)aminomethyl)-2-(2-methylphenyl)benzoyl]methionine Lithium Salt] | 85
26 | CSCC[C@H](NC(=O)c1ccc(/C=C(\C#N)c2cccnc2)cc1-c1ccccc1C)C(=O)O [Example 1076, N-[4-(Z-2-Cyano-2-pyrid-3-ylethenyl)-2-(2-methylphenyl)benzoyl]methionine, Lithium Salt] | 69

Same assay, conditions: read-out: % inhibition at 1 × 10^−6 M

Row | Compound | inhibition at 1 µM [%]
27 | CSCC[C@H](NC(=O)c1cc(I)c(COc2cccnc2)cc1-c1ccccc1C)C(=O)O [Example 347] | 95
28 | CSCC[C@H](NC(=O)Nc1ccc(COc2cccnc2)cc1-c1ccccc1)C(=O)O [Example 348, [4-(3-Pyridyloxymethyl)-2-(phenyl)phenylaminocarbonyl]methionine] | 66
29 | CSCC[C@H](NC(=O)c1ccc(C(O[Si](C)(C)C(C)(C)C)c2ccncc2)cc1-c1ccccc1)C(=O)O (some centres unmarked) [Example 297, [4-(4-Pyridyl-t-butyldimethylsilyloxymethyl)-2-phenylbenzoyl]methionine Sodium Salt] | 65
30 | CSCC[C@H](NC(=O)c1ccc(COc2cccnc2)cc1-c1ccccc1)c1nnc(C(F)(F)F)[nH]1 [Example 272, N-[3-(Methylthio)-1-(2-trifluoromethyl-1H-1,3,4-triazol-5-yl)propyl]-4-(3-pyridyloxymethyl)-2-phenylbenzamide] | 96
31 | CSCC[C@H](NC(=O)c1ccc(NC(=O)c2cnccc2C(F)(F)F)cc1-c1ccccc1)C(=O)O [Example 282, [4-(4-Trifluoromethylpyrid-3-ylcarbonylamino)-2-phenylbenzoyl]methionine Sodium Salt] | 76

Same assay, conditions: read-out: % inhibition at 1 × 10^−7 M

Row | Compound | inhibition at 0.1 µM [%]
32 | CSCC[C@H](NC(=O)c1ccc(CCc2ccc(Oc3ccccc3)nc2)cc1-c1ccccc1C)C(=O)O [Example 801, N-[4-(2-(6-Phenyloxypyrid-3-yl)ethyl)-2-(2-methylphenyl)benzoy]methionine Lithium Salt] | 87
33 | CSCC[C@H](NC(=O)c1ccc(/C=C/c2cncc3ccccc23)cc1-c1ccccc1C)C(=O)O (stereo in doubt) [Example 491, N-[4-(2-Isoquinolin-4-ylethen-1-yl)-2-(2-methylphenyl)benzoyl]methionine Lithium Salt] | 94
34 | CSCC[C@H](NC(=O)c1ccc(/C=C/c2ccc(Oc3ccccc3Cl)nc2)cc1-c1ccccc1C)C(=O)O [Example 802, Lithium Salt] | 88
35 | CSCC[C@H](NC(=O)c1ccc(C=Cc2ccc(Oc3ccccc3)nc2)cc1-c1ccccc1C)C(=O)O [Example 800, N-[4-(2-(6-Phenyloxypyrid-3-yl)ethen-1-yl)-2-(2-methylphenyl)benzoyl]methionine Lithium Salt] | 74
